Assay results: patent US20220168430A1, “THERAPEUTIC METHODS FOR TREATING HEPATITIS B” (priority 2019, published 2022)
Read-outs that look alike come from different tables or passages of the source.

How the values were obtained:
HBV rcDNA = test: microbe, parasite or virus in culture; type: cell-based, HBV genotype D, serotype ayw; HepG 2.2.15; conditions: for SYNERGY PLOT (99%) Bonferroni Adj. 55%: TDF 0 μM, Cmpd 1 by row r37-r42: 0.405, 0.135, 0.045, 0.015, 0.005, 0 μM
Experimental: In vitro triple agent combination studies were conducted using the method of Prichard and Shipman 1990 (Prichard M N, Shipman C, Jr. 1990. Antiviral Res 14:181-205). The HepG 2.2.15 cell line was derived from HepG2 cells with constitutive expression of HBV (genotype D, serotype ayw) (Sells M A, Chen M L, Acs G. 1987. Proc Natl Acad Sci USA 84:1005-9). […] The plates were incubated for 7 days in a humidified incubator at 37° C. and 5% CO2. The level of rcDNA present in the culture supernatants was measured using a Quantigene 2.0 bDNA assay kit (Affymetrix, Santa Clara, Calif.) with HBV specific custom probe set (genotype D ayw) and according to the manufacturer's instructions and read using a luminescence plate reader and the relative luminescence units (RLU) data generated from each well was calculated as % inhibition of the untreated control wells and analyzed using the MacSynergy II program to determine whether the combinations were synergistic, additive or antagonistic using the interpretive guidelines established by Prichard and Shipman (Prichard M N, Shipman C, Jr. 1990. […] Concurrently, in each experiment, the effect of inhibitor combinations on cell viability was assessed in triplicates that were used to determine the ATP content as a measure of cell viability using the Cell-Titer Glo reagent (Promega, Madison, Wis.) as per the manufacturer's instructions.

HBV DNA = type: in vivo, C57BL/6 mice; HBV serotype Ayw, genotype D; conditions: for Serum HBV DNA: group mean ± SEM, n=6
Experimental: Prior to treatment start, 1×10^11 viral genomes of an adeno-associated virus (AAV) vector carrying a 1.3-fold overlength copy of an HBV genome (serotype Ayw, genotype D) was administered to C57BL/6 mice via intravenous injection. Introduction of this viral vector results in the expression of HBV DNA and HBV surface antigen (HBsAg) amongst other HBV products. Serum HBV DNA levels in mice was measured using a quantitative polymerase chain reaction (QPCR) assay, HBsAg in serum and liver of mice was measured using an enzyme-linked immunosorbent assay (ELISA), and anti-HBsAg antibodies were measured using ELISA.
Treatment effects on serum HBV DNA were determined by collecting a small amount of blood on Days 0 (pre-treatment) and 14, as well as from terminal blood collections at Day 42. Treatment effects on HBsAg in serum and liver were determined from terminal sample collections at Day 42.
Any individual animal samples measured to fall below assay lower limit of quantitation (LLOQ) were reported as the LLOQ value.

[1] = Hepatitis B virus, HepG2.2.15, read-out: ADDITIVE INHIBITION

COCCCOc1cc2c(nc1OC)-c1cc(=O)c(C(=O)O)cn1[C@H](C(C)C)C2 [Compound 2]
AVERAGE % INHIBITION (HBV rcDNA; Cmpd 1 0 μM, Cmpd 2 0.0001 μM, TAF 0 μM): 31.76% | AVERAGE % INHIBITION (HBV rcDNA; Cmpd 1 0 μM, Cmpd 2 0.0002 μM, TAF 0 μM): 43.68% | AVERAGE % INHIBITION (HBV rcDNA; Cmpd 1 0 μM, Cmpd 2 0.0004 μM, TAF 0 μM): 58.53% | AVERAGE % INHIBITION (HBV rcDNA; Cmpd 1 0 μM, Cmpd 2 0.001 μM, TAF 0 μM): 71.85% | AVERAGE % INHIBITION (HBV rcDNA; Cmpd 1 0 μM, Cmpd 2 0.002 μM, TAF 0 μM): 78.06% | AVERAGE % INHIBITION (HBV rcDNA; Cmpd 1 0 μM, Cmpd 2 0.003 μM, TAF 0 μM): 83.72% | AVERAGE % INHIBITION (HBV rcDNA; Cmpd 1 0 μM, Cmpd 2 0.007 μM, TAF 0 μM): 85.49% | AVERAGE % INHIBITION (HBV rcDNA; Cmpd 1 0 μM, Cmpd 2 0.027 μM, TAF 0 μM): 87.17% | AVERAGE % INHIBITION (HBV rcDNA; Cmpd 1 0 μM, Cmpd 2 […], TAF 0 μM): 89.05% | SYNERGY PLOT (99%) Bonferroni Adj. 55% (HBV rcDNA; Cmpd 2 0.00002 μM): 0 | SYNERGY PLOT (99%) Bonferroni Adj. 55% (HBV rcDNA; Cmpd 2 0.00004 μM): 0 | SYNERGY PLOT (99%) Bonferroni Adj. 55% (HBV rcDNA; Cmpd 2 0.00008 μM): 0 | SYNERGY PLOT (99%) Bonferroni Adj. 55% (HBV rcDNA; Cmpd 2 0.00016 μM): 0 | SYNERGY PLOT (99%) Bonferroni Adj. 55% (HBV rcDNA; Cmpd 2 0.0003 μM): 0 | SYNERGY PLOT (99%) Bonferroni Adj. 55% (HBV rcDNA; Cmpd 2 0.0006 μM): 0 | SYNERGY PLOT (99%) Bonferroni Adj. 55% (HBV rcDNA; Cmpd 2 0.001 μM): 0 | SYNERGY PLOT (99%) Bonferroni Adj. 55% (HBV rcDNA; Cmpd 2 0.003 μM): 0 | SYNERGY PLOT (99%) Bonferroni Adj. 55% (HBV rcDNA; Cmpd 2 0.005 μM): 0 | AVERAGE % INHIBITION (HBV rcDNA; ETV @ 0 μM, Cmpd 2 0.0001 μM alone): 39.44% | AVERAGE % INHIBITION (HBV rcDNA; ETV @ 0 μM, Cmpd 2 0.0002 μM alone): 47.6% | AVERAGE % INHIBITION (HBV rcDNA; ETV @ 0 μM, Cmpd 2 0.0004 μM alone): 67.99% | AVERAGE % INHIBITION (HBV rcDNA; ETV @ 0 μM, Cmpd 2 0.001 μM alone): 74.24% | AVERAGE % INHIBITION (HBV rcDNA; ETV @ 0 μM, Cmpd 2 0.002 μM alone): 77.97% | AVERAGE % INHIBITION (HBV rcDNA; ETV @ 0 μM, Cmpd 2 0.003 μM alone): 83.78% | AVERAGE % INHIBITION (HBV rcDNA; ETV @ 0 μM, Cmpd 2 0.007 μM alone): 86.78% | AVERAGE % INHIBITION (HBV rcDNA; ETV @ 0 μM, Cmpd 2 0.027 μM alone): 88.04% | AVERAGE % INHIBITION (HBV rcDNA; ETV @ 0 μM, Cmpd 2 […] alone): 88.65% | inhibition at 20 pM (HBV rcDNA; [1]): 7.15% | inhibition at 40 pM (HBV rcDNA; [1]): 9.56% | inhibition at 0.00016 µM (HBV rcDNA; [1]): 36.2% | inhibition at 0.0003 µM (HBV rcDNA; [1]): 40.9% | inhibition at 0.0006 µM (HBV rcDNA; [1]): 64.5% | inhibition at 0.001 µM (HBV rcDNA; [1]): 69.8% | inhibition at 0.003 µM (HBV rcDNA; [1]): 74.5% | inhibition at 0.005 µM (HBV rcDNA; [1]): 77.5%

CC(C)OC(=O)OCOP(=O)(CO[C@H](C)Cn1cnc2c(N)ncnc21)OCOC(=O)OC(C)C.O=C(O)/C=C/C(=O)O [TDF, tenofovir disoproxil fumarate, reference compound]
Serum HBV DNA (HBV DNA; Day 0 (pre-treatment)): 4.31 ± 0.10 log10 copies/microliter | Serum HBV DNA (HBV DNA; Day 14, siRNA 3 mg/kg s.c. Days 0 and 28, encapsidation inhibitor 100 mg/kg and/or TDF 1 mg/kg oral daily): 3.11 ± 0.15 log10 copies/microliter | Serum HBV DNA (HBV DNA; Day 42, siRNA 3 mg/kg s.c. Days 0 and 28, encapsidation inhibitor 100 mg/kg and/or TDF 1 mg/kg oral daily Days 0-41): 3.58 ± 0.14 log10 copies/microliter | HBV DNA inhibition, decrease from Day 0 to Day 42 (HBV DNA; serum, AAV-HBV mice, siRNA 3 mg/kg s.c. Days 0 and 28, encapsidation inhibitor 100 mg/kg and/or TDF 1 mg/kg oral daily): 0.73 log10
